Among the data in US10301280B2 (Plexxikon Inc., priority 2012, dated 2019) are IC50 values, retold here.

The target in one assay is c-kit kinase (Homo sapiens (Human), UniProt P10721). As to the kind of experiment: c-Kit biochemical assay (AlphaScreen). Particulars: c-kit biochemical inhibitory activity. How it is done:
Assays for biochemical cell-based activity of c-kit kinase are known in the art, for example, as described in U.S. Pat. Nos. 7,498,342 and 7,846,941, the disclosures of which are hereby incorporated by reference as it relates to such assays. The c-kit (or kinase domain thereof) is an active kinase in AlphaScreen. IC50 values are determined with respect to inhibition of c-Kit kinase activity, where inhibition of phosphorylation of a peptide substrate is measured as a function of compound concentration. Compounds to be tested were dissolved in DMSO to a concentration of 20 mM. These were diluted 30 μl into 120 μl of DMSO (4 mM) and 1 μl was added to an assay plate. These were then serially diluted 1:3 (50 μl to 100 μl DMSO) for a total of 8 points. Plates were prepared such that each kinase reaction is 20 μl in 1× kinase buffer (50 mM HEPES, pH 7.2, 5 mM MgCl2, 5 mM MnCl2, 0.01% NP-40, 0.2% BSA), 5% DMSO and 10 µM ATP. Substrate was 100 nM biotin-(E4Y)3 (Open Source Biotech, Inc.). C-kit kinase was at 0.1 ng per sample. After incubation of the kinase reaction for 1 hour at room temperature, 5 μl of donor beads (Streptavidin coated beads (Perkin Elmer Life Science) final concentration 1 μg/ml) in stop buffer (50 mM EDTA in 1× kinase buffer) was added, the sample was mixed and incubated for 20 minutes at room temperature before adding 5 μl of acceptor beads (PY20 coated beads (Perkin Elmer Life Science) final concentration 1 μg/ml) in stop buffer. The samples were incubated for 60 minutes at room temperature and the signal per well was read on AlphaQuest reader. Phosphorylated substrate results in binding of the PY20 antibody and association of the donor and acceptor beads such that signal correlates with kinase activity. The signal vs. compound concentration was used to determine the IC50.
Compounds were also tested using a similar assay with a 10-fold higher ATP concentration. For these samples, compounds to be tested were dissolved in DMSO to a concentration of 20 mM. These were diluted 30 μl into 120 μl of DMSO (4 mM) and 1 μl was added to an assay plate. These were then serially diluted 1:3 (50 μl to 100 μl DMSO) for a total of 8 points. Plates were prepared such that each kinase reaction is 20 μl in 1× kinase buffer (25 mM HEPES, pH 7.5, 2 mM MgCl2, 2 mM MnCl2, 0.01% Tween-20, 1 mM DTT, and 0.001% BSA), 5% DMSO and 100 µM ATP. Substrate was 30 nM biotin-(E4Y)10 (Upstate Biotech, Cat#12-440). C-kit kinase was at 1 ng per sample. After incubation of the kinase reaction for 1 hour at room temperature, 5 μl of donor beads (Streptavidin coated beads (Perkin Elmer Life Science) final concentration 10 μg/ml) in stop buffer (25 mM HEPES pH 7.5, 100 mM EDTA, 0.3% BSA) was added, the sample was mixed and incubated for 20 minutes at room temperature before adding 5 μl of acceptor beads (PY20 coated beads (Perkin Elmer Life Science) final concentration 10 μg/ml) in stop buffer. The samples were incubated for 60 minutes at room temperature and the signal per well was read on AlphaQuest or Envision reader (Perkin Elmer Life Science). Phosphorylated substrate results in binding of the PY20 antibody and association of the donor and acceptor beads such that signal correlates with kinase activity. The signal vs. compound concentration was used to determine the IC50.
The c-kit enzyme used in the above assay was either obtained from Cell Signaling Technology (Cat. #7754) or was prepared as follows: A plasmid encoding kit (DNA and encoded protein sequences shown below) was engineered using common polymerase chain reaction (PCR) methods. Complementary DNA cloned from various human tissues were purchased from Invitrogen, and these were used as substrates in the PCR reactions. Specific custom synthetic oligonucleotide primers were designed to initiate the PCR product, and also to provide the appropriate restriction enzyme cleavage sites for ligation with the plasmids. […]

For assay [1], the system named is BaF3-FL KIT D816V or BaF3-FL KIT V560G/D816V cell line. Kind of assay: Cell-based assays of c-Kit mutant kinase activity (cell growth, ATPlite). Particulars: at least one of the c-kit cell assays of Example 26. In a few lines: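 BaF3 cells dependent on full-length human KIT (D816V or V560G/D816V) seeded at 1×10^4 cells/well in RPMI with 10% FBS. Eight-point 1:3 dilutions from 10 μM top final (0.2% DMSO), 3 days at 37° C., 5% CO2. ATPlite luminescence gave IC50.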
(In ATP-based viability assays light output follows the ATP content of the culture.)

Where only a bound is given, the exact number is not on record here.

Chain of c-kit kinase (P10721 26-976): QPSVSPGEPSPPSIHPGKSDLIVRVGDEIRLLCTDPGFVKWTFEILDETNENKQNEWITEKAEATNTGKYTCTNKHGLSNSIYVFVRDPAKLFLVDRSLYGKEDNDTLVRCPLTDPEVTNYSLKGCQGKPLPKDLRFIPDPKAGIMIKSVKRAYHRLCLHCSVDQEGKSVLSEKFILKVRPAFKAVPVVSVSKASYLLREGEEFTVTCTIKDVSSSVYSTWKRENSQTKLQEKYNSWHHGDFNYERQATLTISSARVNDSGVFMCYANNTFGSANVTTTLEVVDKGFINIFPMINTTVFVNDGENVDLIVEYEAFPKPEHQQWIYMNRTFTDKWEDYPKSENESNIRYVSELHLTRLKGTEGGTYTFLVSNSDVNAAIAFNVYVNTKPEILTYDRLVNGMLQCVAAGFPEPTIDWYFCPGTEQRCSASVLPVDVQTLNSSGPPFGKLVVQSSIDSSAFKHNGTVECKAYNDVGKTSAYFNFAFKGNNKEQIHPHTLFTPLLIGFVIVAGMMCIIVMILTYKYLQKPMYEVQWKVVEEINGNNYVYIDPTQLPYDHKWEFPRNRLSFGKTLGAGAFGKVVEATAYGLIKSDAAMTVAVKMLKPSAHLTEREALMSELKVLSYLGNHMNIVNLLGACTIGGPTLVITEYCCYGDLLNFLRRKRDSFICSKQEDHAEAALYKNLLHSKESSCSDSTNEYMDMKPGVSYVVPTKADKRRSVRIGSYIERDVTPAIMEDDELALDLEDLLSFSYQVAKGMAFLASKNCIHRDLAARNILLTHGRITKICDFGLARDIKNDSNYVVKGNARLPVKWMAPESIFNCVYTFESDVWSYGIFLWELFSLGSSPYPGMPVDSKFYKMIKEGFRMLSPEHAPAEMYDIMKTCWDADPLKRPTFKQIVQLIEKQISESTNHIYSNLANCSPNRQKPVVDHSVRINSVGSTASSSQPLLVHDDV

Usually IC50 stands for the concentration at which inhibition is half-maximal. A low value points to greater potency. For the compound `O=C(Nc1cnc2[nH]c(-c3ccccc3)cc2c1)c1ncccc1F` [P-2012, 3-fluoro-N-(2-phenyl-1H-pyrrolo[2,3-b]pyridin-5-yl)pyridine-2-carboxamide], the IC50 was 0.0001 to 1 µM against c-kit kinase and less than 10 µM in assay [1].

Turning to `Cc1noc(C)c1C(=O)Nc1cnc2[nH]c(-c3ccccc3)cc2c1` [P-2013, 3,5-dimethyl-N-(2-phenyl-1H-pyrrolo[2,3-b]pyridin-5-yl)isoxazole-4-carboxamide], the IC50 at c-kit kinase was 0.0001 to 1 µM; in assay [1], less than 10 µM.

Consider `O=C(Nc1cnc2[nH]c(-c3ccccc3)cc2c1)c1cn[nH]n1` [P-2015, N-(2-phenyl-1H-pyrrolo[2,3-b]pyridin-5-yl)-2H-triazole-4-carboxamide], for which the 50% inhibitory concentration (IC50) is 1 to 10 µM against c-kit kinase and less than 10 µM in assay [1].

In the case of `Cc1cccnc1C(=O)Nc1cnc2[nH]c(-c3ccccc3)cc2c1` [P-2016, 3-methyl-N-(2-phenyl-1H-pyrrolo[2,3-b]pyridin-5-yl)pyridine-2-carboxamide], the values for the IC50 (against c-kit kinase; in assay [1]) were 1 to 10 µM and less than 10 µM, respectively.

Consider `Cc1cc(C(=O)Nc2cnc3[nH]c(-c4ccc(F)cc4)cc3c2)[nH]n1` [P-2019, N-[2-(4-fluorophenyl)-1H-pyrrolo[2,3-b]pyridin-5-yl]-3-methyl-1H-pyrazole-5-carboxamide], for which the figures for the IC50 (against c-kit kinase; in assay [1]) were 10 to 200 µM and less than 10 µM, respectively.

As for `Cc1n[nH]c(C(=O)Nc2cnc3[nH]c(-c4ccc(F)cc4)cc3c2)c1Cl` [P-2023, 4-chloro-N-[2-(4-fluorophenyl)-1H-pyrrolo[2,3-b]pyridin-5-yl]-3-methyl-1H-pyrazole-5-carboxamide], the IC50 on c-kit kinase was 1 to 10 µM; in assay [1] it was less than 10 µM.

For the compound `Cc1n[nH]c(C(=O)Nc2cnc3[nH]c(-c4ccc(F)cc4)cc3c2)c1C` [P-2024, N-[2-(4-fluorophenyl)-1H-pyrrolo[2,3-b]pyridin-5-yl]-3,4-dimethyl-1H-pyrazole-5-carboxamide], the IC50 was 10 to 200 µM on c-kit kinase and less than 10 µM in assay [1].

Regarding `CC(=O)Nc1cccc(C(=O)Nc2cnc3[nH]c(-c4ccc(F)cc4)cc3c2)c1` [P-2026, 3-acetamido-N-[2-(4-fluorophenyl)-1H-pyrrolo[2,3-b]pyridin-5-yl]benzamide], the IC50 is 0.0001 to 1 µM against c-kit kinase and less than 10 µM in assay [1].

With `O=C(Nc1cnc2[nH]c(-c3ccc(F)cc3)cc2c1)c1cccc2n[nH]cc12` [P-2027, N-[2-(4-fluorophenyl)-1H-pyrrolo[2,3-b]pyridin-5-yl]-2H-indazole-4-carboxamide], the half-maximal inhibitory concentration (IC50) against c-kit kinase is 0.0001 to 1 µM; in assay [1] it was less than 10 µM.

Take `Cc1c[nH]nc1C(=O)Nc1cnc2[nH]c(-c3ccc(F)cc3)cc2c1` [P-2029, N-[2-(4-fluorophenyl)-1H-pyrrolo[2,3-b]pyridin-5-yl]-4-methyl-1H-pyrazole-3-carboxamide]: the IC50 against c-kit kinase was 0.0001 to 1 µM; in assay [1], less than 10 µM.

For `CCn1nccc1S(=O)(=O)Nc1cnc2[nH]c(-c3ccc(F)cc3)cc2c1` [P-2030, 2-ethyl-N-[2-(4-fluorophenyl)-1H-pyrrolo[2,3-b]pyridin-5-yl]pyrazole-3-sulfonamide], the half-inhibitory concentration (IC50) was 1 to 10 µM at c-kit kinase and less than 10 µM in assay [1].

On to `Cc1cc(C(=O)Nc2cnc3[nH]c(C4=CCN(C(=O)N5CCOCC5)CC4)cc3c2)n[nH]1` [P-2031, 5-methyl-N-[2-[1-(morpholine-4-carbonyl)-3,6-dihydro-2H-pyridin-4-yl]-1H-pyrrolo[2,3-b]pyridin-5-yl]-1H-pyrazole-3-carboxamide], for which the IC50 on c-kit kinase was 0.0001 to 1 µM; in assay [1], less than 10 µM.

On to `Cc1n[nH]c(C(=O)Nc2cnc3[nH]ccc3c2)c1C` [P-2032, 3,4-dimethyl-N-(1H-pyrrolo[2,3-b]pyridin-5-yl)-1H-pyrazole-5-carboxamide], for which the results for the IC50 (against c-kit kinase; in assay [1]) were 10 to 200 µM and less than 10 µM, respectively.

Turning to `Cc1n[nH]c(C(=O)Nc2cnc3c(c2)cc(C2=CCN(C(=O)N4CCOCC4)CC2)n3S(=O)(=O)c2ccccc2)c1C` [P-2033, N-[1-(benzenesulfonyl)-2-[1-(morpholine-4-carbonyl)-3,6-dihydro-2H-pyridin-4-yl]pyrrolo[2,3-b]pyridin-5-yl]-3,4-dimethyl-1H-pyrazole-5-carboxamide], the figures for the IC50 (on c-kit kinase; in assay [1]) were 10 to 200 µM and less than 10 µM, respectively.

Consider `Cc1n[nH]c(C(=O)Nc2cnc3[nH]c(C4=CCN(C(=O)N5CCOCC5)CC4)cc3c2)c1C` [P-2034, 3,4-dimethyl-N-[2-[1-(morpholine-4-carbonyl)-3,6-dihydro-2H-pyridin-4-yl]-1H-pyrrolo[2,3-b]pyridin-5-yl]-1H-pyrazole-5-carboxamide], for which the figures for the IC50 (at c-kit kinase; in assay [1]) were 0.0001 to 1 µM and less than 10 µM, respectively.

Regarding `Cc1n[nH]c(C(=O)Nc2cnc3[nH]c(C4=CCN(C(=O)N5CCOCC5)CC4)cc3c2)c1Cl` [P-2036, 4-chloro-3-methyl-N-[2-[1-(morpholine-4-carbonyl)-3,6-dihydro-2H-pyridin-4-yl]-1H-pyrrolo[2,3-b]pyridin-5-yl]-1H-pyrazole-5-carboxamide], the IC50 against c-kit kinase was 0.0001 to 1 µM; in assay [1], less than 10 µM.

For the compound `Cc1n[nH]nc1C(=O)Nc1cnc2[nH]c(-c3ccc(F)cc3)cc2c1` [P-2037, N-[2-(4-fluorophenyl)-1H-pyrrolo[2,3-b]pyridin-5-yl]-5-methyl-2H-triazole-4-carboxamide], the IC50 on c-kit kinase is 1 to 10 µM; in assay [1], less than 10 µM.

`Cc1nn(C)cc1-c1cc2cc(NC(=O)c3[nH]nc(C)c3C)cnc2[nH]1` [P-2038, N-[2-(1,3-dimethylpyrazol-4-yl)-1H-pyrrolo[2,3-b]pyridin-5-yl]-4,5-dimethyl-1H-pyrazole-3-carboxamide]: the half-inhibitory concentration (IC50) against c-kit kinase is 0.0001 to 1 µM; in assay [1], less than 10 µM.

In the case of `Cc1[nH]nc(C(=O)Nc2cnc3[nH]c(C4=CCN(C(=O)C5CC5)CC4)cc3c2)c1Cl` [P-2039, 4-chloro-N-[2-[1-(cyclopropanecarbonyl)-3,6-dihydro-2H-pyridin-4-yl]-1H-pyrrolo[2,3-b]pyridin-5-yl]-5-methyl-1H-pyrazole-3-carboxamide], the IC50 against c-kit kinase is 0.0001 to 1 µM; in assay [1] it was less than 10 µM.

In the case of `Cc1n[nH]c(C(=O)Nc2cnc3[nH]nc(C)c3c2)c1C` [P-2040, 3,4-dimethyl-N-(3-methyl-1H-pyrazolo[3,4-b]pyridin-5-yl)-1H-pyrazole-5-carboxamide], the IC50 against c-kit kinase was 10 to 200 µM; in assay [1], less than 10 µM.

On to `Cc1cc(C(=O)Nc2cnc3[nH]c(C4=CCN(C(=O)C5CC5)CC4)cc3c2)n[nH]1` [P-2042, N-[2-[1-(cyclopropanecarbonyl)-3,6-dihydro-2H-pyridin-4-yl]-1H-pyrrolo[2,3-b]pyridin-5-yl]-5-methyl-1H-pyrazole-3-carboxamide], for which the results for the IC50 (on c-kit kinase; in assay [1]) were 0.0001 to 1 µM and less than 10 µM, respectively.

In the case of `Cc1[nH]nc(C(=O)Nc2cnc3[nH]c(C4=CCN(C(=O)C5CC5)CC4)cc3c2)c1C` [P-2043, N-[2-[1-(cyclopropanecarbonyl)-3,6-dihydro-2H-pyridin-4-yl]-1H-pyrrolo[2,3-b]pyridin-5-yl]-4,5-dimethyl-1H-pyrazole-3-carboxamide], the IC50 against c-kit kinase was 0.0001 to 1 µM; in assay [1], less than 10 µM.

Take `Cc1n[nH]c(C(=O)Nc2cnc(Nc3ccccc3)nc2)c1C` [P-2044, N-(2-anilinopyrimidin-5-yl)-3,4-dimethyl-1H-pyrazole-5-carboxamide]: the values for the IC50 (at c-kit kinase; in assay [1]) were 10 to 200 µM and less than 10 µM, respectively.
